PubChem BioAssay (NCI)
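These data come from cells grown in 96-well plates and exposed to compound for 48 hours at five concentrations. TGI: concentration producing complete growth inhibition.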

Columns and labels:
Test in all cases: NCI tumour cell line growth inhibition, 48 h
786-0 renal = test system: 786-0 renal
P388/ADR leukemia = test system: P388/ADR leukemia
SN12K1 renal = test system: SN12K1 renal
P388 leukemia = test system: P388 leukemia
RXF-631 renal = test system: RXF-631 renal

O=C(O)Cc1[nH]cnc1C(=O)O
TGI (786-0 renal): > 100 µM

COc1ccc(/C=C/[N+](=O)[O-])cc1
TGI (786-0 renal): > 100 µM

CSc1sc(=S)sc1SC
TGI (P388/ADR leukemia): > 100 µM
TGI (SN12K1 renal): > 100 µM
TGI (P388 leukemia): > 100 µM

COc1ccc(/C(Cl)=C(\C=O)c2ccc(Cl)c(Cl)c2)cc1OC
TGI (RXF-631 renal): 16.6 µM
